Consider three compounds from patent US9226928B2, “Spirocyclic isoxazoline parasiticidal combinations” (Zoetis Services LLC, priority 2012, dated 2016).

A value given as a limit tells only on which side of the number the result lay.

This test concerns Haemonchus contortus L3 resistant strain. The experiment in a line: In vitro motility assay, H. contortus L3 resistant strain. The format is cell-based. To be noted: 96 hours; for H. contortus L3 resistant MED: minimum efficacious dose, visual motility assessment; for % Motility: vs untreated control, LemnaTec, moxidectin 0.3 μM, pyrantel 10 μM, Compound A 100 μM, alone or combined.

On to `CS(=O)(=O)CC(=O)N1CC2(C1)OCc1cc(C3=NO[C@@](c4cc(Cl)c(F)c(Cl)c4)(C(F)(F)F)C3)ccc12` [Compound A, (S)-1-(5′-(5-(3,5-dichloro-4-fluorophenyl)-5-(trifluoromethyl)-4,5-dihydroisoxazol-3-yl)-3′H-spiro[azetidine-3,1′-isobenzofuran]-1-yl)-2-(methylsulfonyl)ethanone], for which the “H. contortus L3 resistant MED” value was over 100 µM and the “% Motility” value came out at 69.0%.
As to `CO/N=C1\C[C@]2(C[C@@H]3C[C@@H](C/C=C(\C)C[C@@H](C)/C=C/C=C4\CO[C@@H]5[C@H](O)C(C)=C[C@@H](C(=O)O3)[C@]45O)O2)O[C@H](/C(C)=C/C(C)C)[C@H]1C` [Moxidectin, moxidectin], the “H. contortus L3 resistant MED” value amounted to 1 µM and the “% Motility” value turned out to be 64.3%.
In the same order, the values of `CN1CCCN=C1/C=C/c1cccs1` [Pyrantel, pyrantel pamoate] are 33 µM and 80.0%.
